Data on 31 compounds can be found in patent US7868204B2, “Inhibitors of histone deacetylase” (MethylGene Inc., priority 2001, dated 2011).

The target in assay [1] is T1, cloned recombinant human HDAC-1 (Homo sapiens, UniProt Q13547).
T1 construct: made in house; host or cells: Baculovirus insect cell expression system
The assay is described as follows: Human HDAC-1 enzyme inhibition, Assay 1 ([3H]-acetylated histone substrate, scintillation counting). In kind it is biochemical. As to conditions: Table 5F; read-out: Human HDAC-1 IC50. Summed up: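 Activity read as [3H]-acetic acid liberated from labeled substrate, ethyl acetate-extracted and scintillation-counted. Compounds preincubated 30 min at 4° C. with baculovirus-expressed, purified human HDAC-1. Dose-response curves give IC50 as concentration producing fifty percent of maximal inhibition.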

For assay [2], the system named is acetylated histone H-4 in T24 human bladder cancer cells. The assay is described as follows: Histone H4 acetylation in whole cells by immunoblots. In kind it is cell-based. Conditions: T-24, Table 5F, 16 h, read-out: H4 Ac (T24) EC50. The method in brief:
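Acetylated histone H4 was quantified by densitometry of ECL-developed immunoblots, probed with a polyclonal antibody, of […] total histone from T24 cultures exposed 16 h to HDAC inhibitors.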
A general note: In western blotting, separated proteins are transferred to a membrane and probed.

A further assay relates to HCT116 cells. The assay is described as follows: MTT assay. In kind it is cell-based. Conditions: Homo sapiens, HCT-116, 72 h, Table 5F; HCT116 cells, 72 hours. Summed up: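 Read-out: MTT (0.5 mg/ml final, 4 h) after solubilization in 50% DMF/20% SDS, pH 4.7, with OD translated into cell number via the line's growth curve. Compound treatment lasted 72 h at 37 °C in 5% CO2, starting a day after plating.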
For orientation: Tetrazolium dyes change colour on reduction, which living cells bring about.

As a reminder, the IC50 is the concentration that gives 50% inhibition. As usually defined, the EC50 is the concentration needed to bring the measured effect to its halfway point.

T1 sequence (Q13547 whole entry): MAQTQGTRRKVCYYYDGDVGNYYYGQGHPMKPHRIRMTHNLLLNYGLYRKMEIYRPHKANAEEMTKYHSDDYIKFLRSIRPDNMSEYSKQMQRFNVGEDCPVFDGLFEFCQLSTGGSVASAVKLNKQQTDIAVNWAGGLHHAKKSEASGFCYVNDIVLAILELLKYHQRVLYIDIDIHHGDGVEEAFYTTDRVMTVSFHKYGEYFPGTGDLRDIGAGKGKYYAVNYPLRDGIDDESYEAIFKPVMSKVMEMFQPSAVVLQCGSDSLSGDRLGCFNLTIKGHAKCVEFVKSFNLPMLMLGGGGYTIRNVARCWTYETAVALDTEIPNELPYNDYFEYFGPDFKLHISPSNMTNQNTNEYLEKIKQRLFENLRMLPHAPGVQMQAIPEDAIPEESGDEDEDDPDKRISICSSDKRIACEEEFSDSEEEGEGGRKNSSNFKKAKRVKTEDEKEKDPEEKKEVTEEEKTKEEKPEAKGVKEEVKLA

Turning to `Nc1ccccc1NC(=O)c1ccc(CNc2nc(-c3ccc(Cl)cc3)cs2)cc1` [Cpd 321, N-(2-Amino-phenyl)-4-{[4-(4-chloro-phenyl)-thiazol-2-ylamino]-methyl}-benzamide], the figures for the 50% inhibitory concentration (IC50) (in assay [1]; with HCT116 cells) were 500 nM and 300 nM, respectively. The EC50 in assay [2] is 5000 nM.

With `Nc1ccccc1NC(=O)c1ccc(CNc2nc3cc(Br)ccc3s2)cc1` [Cpd 322, N-(2-Amino-phenyl)-4-[(5-bromo-benzothiazol-2-ylamino)-methyl]-benzamide], the IC50 amounted to 700 nM in assay [1] and 400 nM in the assay with HCT116 cells. Also, the concentration for a half-maximal effect (EC50) in assay [2] was determined as 2000 nM.

Consider `COc1cc(NCc2ccc(-c3ccc(C(=O)Nc4ccccc4N)cc3)s2)cc(OC)c1OC` [Cpd 323], for which the half-maximal inhibitory concentration (IC50) in assay [1] was found to be 1000 nM; in the assay on HCT116 cells, 600 nM. Besides, the EC50 in assay [2] was found to be 1000 nM.

In the case of `Nc1ccccc1NC(=O)c1ccc(CSc2nc3ccc(NCc4cccnc4)cc3s2)cc1` [Cpd 325, N-(2-Amino-phenyl)-4-{6-[(pyridin-3-ylmethyl)-amino]-benzothiazol-2-ylsulfanylmethyl}-benzamide], the IC50 in assay [1] worked out at 300 nM; in the assay on HCT116 cells it was 1000 nM. Also, in assay [2], the EC50 is 2000 nM.

As to `Nc1ccccc1NC(=O)c1ccc(CSc2nc3ccc(NCc4ccccn4)cc3s2)cc1` [Cpd 326, N-(2-Amino-phenyl)-4-{6-[(pyridin-2-ylmethyl)-amino]-benzothiazol-2-ylsulfanylmethyl}-benzamide], the IC50 (in assay [1]; in the assay with HCT116 cells) was 1000 nM in each case. In addition, the EC50 in assay [2] came to 3000 nM.

Regarding `Nc1ccccc1NC(=O)c1ccc(CSc2ncc[nH]2)cc1` [Cpd 327, N-(2-Amino-phenyl)-4-(1H-imidazol-2-ylsulfanylmethyl)-benzamide], the IC50 in assay [1] amounted to 2000 nM; in the assay on HCT116 cells, 5000 nM. Moreover, in assay [2], the concentration for a half-maximal effect (EC50) came out at 3000 nM.

As for `CCCCn1cnc2c(NCc3ccc(C(=O)Nc4ccccc4N)cc3)nc(N)nc21` [Cpd 330, 4-[(2-Amino-9-butyl-9H-purin-6-ylamino)-methyl]-N-(2-amino-phenyl)-benzamide], the concentration for half-maximal inhibition (IC50) in assay [1] worked out at 3000 nM; in the assay with HCT116 cells, 2000 nM. In addition, in assay [2], the concentration giving a half-maximal response (EC50) was 1000 nM.

Consider `Nc1ccccc1NC(=O)c1ccc(CNc2nc(Cl)nc3[nH]cnc23)cc1` [Cpd 332, N-(2-Amino-phenyl)-4-[(2-chloro-9H-purin-6-ylamino)-methyl]-benzamide], for which the 50% inhibitory concentration (IC50) in assay [1] was 400 nM; with HCT116 cells it was 1000 nM. In addition, the EC50 in assay [2] stood at 5000 nM.

Regarding `CCCCn1cnc2c(NCc3ccc(C(=O)Nc4ccccc4N)cc3)nc(Cl)nc21` [Cpd 333, N-(2-Amino-phenyl)-4-[(9-butyl-2-chloro-9H-purin-6-ylamino)-methyl]-benzamide], the IC50 in assay [1] was 2000 nM; in the assay on HCT116 cells, 100 nM. Also, the EC50 in assay [2] was 1000 nM.

As for `Nc1ccccc1NC(=O)c1ccc(NCc2nc3ccccc3[nH]2)cc1` [Cpd 334], the half-maximal inhibitory concentration (IC50) in assay [1] was found to be 8000 nM; in the assay with HCT116 cells it was 200 nM. For the same compound, the 50% effective concentration (EC50) in assay [2] is 1000 nM.

Consider `Nc1ccccc1NC(=O)c1ccc(Cn2cnc3ccc(Cl)cc3c2=O)cc1` [Cpd 336], for which the half-inhibitory concentration (IC50) in assay [1] amounted to 1000 nM; in the assay on HCT116 cells it was 400 nM. The EC50 in assay [2] was below 1000 nM.

In the case of `Cc1nc2ccccc2c(=O)n1Cc1ccc(C(=O)Nc2ccccc2N)cc1` [Cpd 337, N-(2-Amino-phenyl)-4-(2-methyl-4-oxo-4H-quinazolin-3-ylmethyl)-benzamide], the values for the IC50 (in assay [1]; with HCT116 cells) were 3000 nM and 600 nM, respectively. For the same compound, the EC50 in assay [2] worked out at 1000 nM.

As to `COc1cc2ncn(Cc3ccc(C(=O)Nc4ccccc4N)cc3)c(=O)c2cc1OC` [Cpd 338, N-(2-Amino-phenyl)-4-(6,7-dimethoxy-4-oxo-4H-quinazolin-3-ylmethyl)-benzamide], the half-maximal inhibitory concentration (IC50) was found to be 2000 nM in assay [1] and 500 nM in the assay on HCT116 cells. For the same compound, in assay [2], the EC50 came to 3000 nM.

Turning to `CN(C)CCn1c(=O)n(Cc2ccc(C(=O)Nc3ccccc3N)cc2)c(=O)c2ccccc21` [Cpd 340, N-(2-Amino-phenyl)-4-[1-(2-dimethylamino-ethyl)-2,4-dioxo-1,4-dihydro-2H-quinazolin-3-ylmethyl]-benzamide], the IC50 in assay [1] is 2000 nM; in the assay with HCT116 cells, 1000 nM. For the same compound, in assay [2], the half-maximal effective concentration (EC50) worked out at 1000 nM.

Regarding `Nc1ccccc1NC(=O)c1ccc(Cn2c(=O)c3ccccc3n(CCN3CCOCC3)c2=O)cc1` [Cpd 341], the values for the IC50 (in assay [1]; with HCT116 cells) were 4000 nM and 1000 nM, respectively. For the same compound, the concentration giving a half-maximal response (EC50) in assay [2] is 3000 nM.

For the compound `Cc1nc2ccc(Br)cc2c(=O)n1Cc1ccc(C(=O)Nc2ccccc2N)cc1` [Cpd 342, N-(2-Amino-phenyl)-4-(6-bromo-2-methyl-4-oxo-4H-quinazolin-3-ylmethyl)-benzamide], the figures for the half-inhibitory concentration (IC50) (in assay [1]; with HCT116 cells) were 3000 nM and 400 nM, respectively. In addition, the EC50 in assay [2] turned out to be 1000 nM.

With `Nc1ccccc1NC(=O)c1ccc(Cn2c(=O)[nH]c3ccsc3c2=O)cc1` [Cpd 343, N-(2-Amino-phenyl)-4-(2,4-dioxo-1,4-dihydro-2H-thieno[3,2-d]pyrimidin-3-ylmethyl)-benzamide], the half-inhibitory concentration (IC50) was 500 nM in assay [1] and 300 nM in the assay with HCT116 cells. The EC50 in assay [2] came to 1000 nM.

Regarding `CCn1c(=O)n(Cc2ccc(C(=O)Nc3ccccc3N)cc2)c(=O)c2cc(Br)ccc21` [Cpd 344, N-(2-Amino-phenyl)-4-(6-bromo-1-ethyl-2,4-dioxo-1,4-dihydro-2H-quinazolin-3-ylmethyl)-benzamide], the half-maximal inhibitory concentration (IC50) is 500 nM in assay [1] and 200 nM with HCT116 cells. The half-maximal effective concentration (EC50) in assay [2] turned out to be 1000 nM.

In the case of `COc1ccc(Cn2c(=O)n(Cc3ccc(C(=O)Nc4ccccc4N)cc3)c(=O)c3ccccc32)cc1` [Cpd 345, N-(2-Amino-phenyl)-4-[1-(4-methoxy-benzyl)-2,4-dioxo-1,4-dihydro-2H-quinazolin-3-ylmethyl]-benzamide], the results for the concentration for half-maximal inhibition (IC50) (in assay [1]; in the assay with HCT116 cells) were 400 nM and 800 nM, respectively. Also, the half-maximal effective concentration (EC50) in assay [2] was determined as 1000 nM.

Regarding `Nc1ccccc1NC(=O)c1ccc(Cn2cnc3ccc(Br)cc3c2=O)cc1` [Cpd 346, N-(2-Amino-phenyl)-4-(6-bromo-4-oxo-4H-quinazolin-3-ylmethyl)-benzamide], the IC50 was 3000 nM in assay [1] and 500 nM in the assay with HCT116 cells. Also, the EC50 in assay [2] was below 1000 nM.

Take `Nc1ccccc1NC(=O)c1ccc(Cn2nnc3ccc(Br)cc3c2=O)cc1` [Cpd 347, N-(2-Amino-phenyl)-4-(6-bromo-4-oxo-4H-benzo[d][1,2,3]triazin-3-ylmethyl)-benzamide]: the concentration for half-maximal inhibition (IC50) worked out at 2000 nM in assay [1] and 600 nM in the assay on HCT116 cells. For the same compound, the EC50 in assay [2] was determined as 2000 nM.

In the case of `Nc1ccccc1NC(=O)c1ccc(Cn2nnc3ccc(Cl)cc3c2=O)cc1` [Cpd 348, N-(2-Amino-phenyl)-4-(6-chloro-4-oxo-4H-benzo[d][1,2,3]triazin-3-ylmethyl)-benzamide], the IC50 in assay [1] was determined as 2000 nM; in the assay with HCT116 cells it was 300 nM. Also, the concentration giving a half-maximal response (EC50) in assay [2] worked out at 1000 nM.

Take `Nc1ccccc1NC(=O)c1ccc(CNc2cccc(F)n2)cc1` [Cpd 349]: the IC50 in assay [1] was 13000 nM; in the assay on HCT116 cells it was 1000 nM. In assay [2], the EC50 is 3000 nM.

Turning to `Nc1ccccc1NC(=O)c1ccc(CNc2nc(F)c(F)cc2F)cc1` [Cpd 350], the concentration for half-maximal inhibition (IC50) worked out at 2000 nM in assay [1] and 1000 nM with HCT116 cells. Besides, the concentration for a half-maximal effect (EC50) in assay [2] was 5000 nM.

For the compound `Nc1ccccc1NC(=O)c1ccc(Cc2noc(-c3cccnc3)n2)cc1` [Cpd 357, N-(2-Amino-phenyl)-4-(5-pyridin-3-yl-[1,2,4]oxadiazol-3-ylmethyl)-benzamide], the IC50 came out at 4000 nM in assay [1] and 400 nM in the assay with HCT116 cells. Further, the EC50 in assay [2] came out at 2000 nM.

Regarding `Nc1ccccc1NC(=O)c1ccc(Cc2noc(-c3ccncc3)n2)cc1` [Cpd 358, N-(2-Amino-phenyl)-4-(5-pyridin-4-yl-[1,2,4]oxadiazol-3-ylmethyl)-benzamide], the IC50 in assay [1] was 3000 nM; with HCT116 cells it was 1000 nM. Moreover, the EC50 in assay [2] was 2000 nM.

Turning to `CC(=O)Nc1sc(Cc2ccc(C(=O)Nc3ccccc3N)cc2)cc1C#N` [Cpd 359, 4-(5-Acetylamino-4-cyano-thiophen-2-ylmethyl)-N-(2-amino-phenyl)-benzamide], the 50% inhibitory concentration (IC50) in assay [1] stood at 2000 nM; in the assay with HCT116 cells, 300 nM. In assay [2], the EC50 is 1000 nM.

Turning to `Cc1c(Cc2ccc(C(=O)Nc3ccccc3N)cc2)sc(NC(=O)c2ccccc2)c1C#N` [Cpd 360, 4-(5-Benzoylamino-4-cyano-3-methyl-thiophen-2-ylmethyl)-N-(2-amino-phenyl)-benzamide], the results for the IC50 (in assay [1]; in the assay with HCT116 cells) were 5000 nM and 200 nM, respectively. Moreover, the concentration giving a half-maximal response (EC50) in assay [2] amounted to 1000 nM.

For `Cc1c(Cc2ccc(C(=O)Nc3ccccc3N)cc2)sc(NC(=O)Nc2ccccc2)c1C#N` [Cpd 361, N-(2-Amino-phenyl)-4-[4-cyano-3-methyl-5-(3-phenyl-ureido)-thiophen-2-ylmethyl]-benzamide], the half-inhibitory concentration (IC50) in assay [1] stood at 2000 nM; with HCT116 cells it was 500 nM. In assay [2], the concentration for a half-maximal effect (EC50) was found to be 1000 nM.

Turning to `Nc1ccccc1NC(=O)c1ccc(CN2C(=O)COc3ccccc32)cc1` [Cpd 362, N-(2-Amino-phenyl)-4-(3-oxo-2,3-dihydro-benzo[1,4]oxazin-4-ylmethyl)-benzamide], the IC50 in assay [1] was 2000 nM; in the assay with HCT116 cells, 700 nM. For the same compound, the concentration for a half-maximal effect (EC50) in assay [2] is 1000 nM.

Consider `Nc1ccccc1NC(=O)c1ccc(CN2C(=O)CSc3ccccc32)cc1` [Cpd 363, N-(2-Amino-phenyl)-4-(3-oxo-2,3-dihydro-benzo[1,4]thiazin-4-ylmethyl)-benzamide], for which the IC50 amounted to 1000 nM in assay [1] and 300 nM in the assay with HCT116 cells. Also, the 50% effective concentration (EC50) in assay [2] amounted to 3000 nM.
